Assay results taken from PubChem BioAssay (NCI).
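48-hour exposure; five concentrations; linearly interpolated endpoints. Definition used: TGI = concentration required for complete inhibition of growth.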

Tests used:
Test in all cases: NCI anticancer screen, dose series, 48 h
XF 498 CNS = system: XF 498 CNS
DMS 273 small cell lung = system: DMS 273 small cell lung
UO-31 renal = system: UO-31 renal
A549 NSCLC = system: A549 NSCLC
HCT-116 colon = system: HCT-116 colon
T-47D breast = system: T-47D breast
HCC-2998 colon = system: HCC-2998 colon
SR leukemia = system: SR leukemia
OVCAR-8 ovarian = system: OVCAR-8 ovarian
IGROV1 ovarian = system: IGROV1 ovarian
OVCAR-4 ovarian = system: OVCAR-4 ovarian
RPMI-8226 leukemia = system: RPMI-8226 leukemia
NCI-H460 lung = system: NCI-H460 lung
ACHN renal = system: ACHN renal
UACC-257 melanoma = system: UACC-257 melanoma
A498 renal = system: A498 renal
HCT-15 colon = system: HCT-15 colon
HS 578T breast = system: HS 578T breast
HOP-62 NSCLC = system: HOP-62 NSCLC
SN12C renal = system: SN12C renal
SF-268 CNS = system: SF-268 CNS
OVCAR-5 ovarian = system: OVCAR-5 ovarian
NCI-H23 lung = system: NCI-H23 lung
MDA-MB-435 = system: MDA-MB-435
HL-60(TB) leukemia = system: HL-60(TB) leukemia
K-562 leukemia = system: K-562 leukemia
RXF 393 renal = system: RXF 393 renal
SW-620 colon = system: SW-620 colon
BT-549 breast = system: BT-549 breast
SNB-75 CNS = system: SNB-75 CNS
SK-OV-3 ovarian = system: SK-OV-3 ovarian
LOX IMVI melanoma = system: LOX IMVI melanoma
SNB-19 CNS = system: SNB-19 CNS
HOP-18 NSCLC = system: HOP-18 NSCLC
UACC-62 melanoma = system: UACC-62 melanoma
SF-539 CNS = system: SF-539 CNS
SF-295 CNS = system: SF-295 CNS
SK-MEL-5 melanoma = system: SK-MEL-5 melanoma
PC-3 prostate = system: PC-3 prostate
CAKI-1 renal = system: CAKI-1 renal
HOP-92 NSCLC = system: HOP-92 NSCLC
M19-MEL melanoma = system: M19-MEL melanoma
NCI/ADR-RES ovarian = system: NCI/ADR-RES ovarian
KM12 colon = system: KM12 colon
M14 melanoma = system: M14 melanoma
SNB-78 CNS = system: SNB-78 CNS
NCI-H522 lung = system: NCI-H522 lung
SK-MEL-28 melanoma = system: SK-MEL-28 melanoma
LXFL 529 NSCLC = system: LXFL 529 NSCLC
U251 CNS = system: U251 CNS
MOLT-4 leukemia = system: MOLT-4 leukemia
786-0 renal = system: 786-0 renal
MALME-3M melanoma = system: MALME-3M melanoma
HT29 colon = system: HT29 colon
MDA-MB-231 breast = system: MDA-MB-231 breast
CCRF-CEM leukemia = system: CCRF-CEM leukemia
SK-MEL-2 melanoma = system: SK-MEL-2 melanoma
MDA-N = system: MDA-N
COLO 205 colon = system: COLO 205 colon
KM20L2 colon = system: KM20L2 colon
DU-145 prostate = system: DU-145 prostate
TK-10 renal = system: TK-10 renal
DLD-1 colon = system: DLD-1 colon
OVCAR-3 ovarian = system: OVCAR-3 ovarian
EKVX NSCLC = system: EKVX NSCLC
NCI-H226 lung = system: NCI-H226 lung
DMS 114 small cell lung = system: DMS 114 small cell lung

## O=c1[nH]c2ccccc2nc1CBr
XF 498 CNS
  TGI: 3.51 µM
DMS 273 small cell lung
  TGI: 10.4 µM
UO-31 renal
  TGI: 11.2 µM
A549 NSCLC
  TGI: 39.2 µM
HCT-116 colon
  TGI: 21.3 µM
T-47D breast
  TGI: 31.1 µM
HCC-2998 colon
  TGI: 56.2 µM
SR leukemia
  TGI: 2.44 µM
OVCAR-8 ovarian
  TGI: 34.7 µM
IGROV1 ovarian
  TGI: 11.3 µM
OVCAR-4 ovarian
  TGI: 13.4 µM
RPMI-8226 leukemia
  TGI: 9.97 µM
NCI-H460 lung
  TGI: 29 µM
ACHN renal
  TGI: 27 µM
UACC-257 melanoma
  TGI: 27.3 µM
A498 renal
  TGI: > 53.1 µM
HCT-15 colon
  TGI: 26.2 µM
HS 578T breast
  TGI: 42 µM
HOP-62 NSCLC
  TGI: 45 µM
SN12C renal
  TGI: 24.5 µM
SF-268 CNS
  TGI: 31.1 µM
OVCAR-5 ovarian
  TGI: 33.7 µM
NCI-H23 lung
  TGI: 29.1 µM
MDA-MB-435
  TGI: 25.5 µM
HL-60(TB) leukemia
  TGI: 0.721 µM
K-562 leukemia
  TGI: 9.5 µM
RXF 393 renal
  TGI: 7.72 µM
SW-620 colon
  TGI: 17.5 µM
BT-549 breast
  TGI: 21.4 µM
SNB-75 CNS
  TGI: 34.2 µM
SK-OV-3 ovarian
  TGI: 53.3 µM
LOX IMVI melanoma
  TGI: 3.24 µM
SNB-19 CNS
  TGI: 52 µM
HOP-18 NSCLC
  TGI: 19 µM
UACC-62 melanoma
  TGI: 21.3 µM
SF-539 CNS
  TGI: 21.4 µM
SF-295 CNS
  TGI: 43.2 µM
SK-MEL-5 melanoma
  TGI: 23.2 µM
PC-3 prostate
  TGI: 25.1 µM
CAKI-1 renal
  TGI: 19.6 µM
HOP-92 NSCLC
  TGI: 11.8 µM
M19-MEL melanoma
  TGI: 22.8 µM
NCI/ADR-RES ovarian
  TGI: 51.1 µM
KM12 colon
  TGI: 10.1 µM
M14 melanoma
  TGI: 22.8 µM
SNB-78 CNS
  TGI: 65.6 µM
NCI-H522 lung
  TGI: 1.49 µM
SK-MEL-28 melanoma
  TGI: 25.6 µM
LXFL 529 NSCLC
  TGI: 3.21 µM
U251 CNS
  TGI: 23.8 µM
MOLT-4 leukemia
  TGI: 4.35 µM
786-0 renal
  TGI: 9.11 µM
MALME-3M melanoma
  TGI: 8.66 µM
HT29 colon
  TGI: 22.8 µM
MDA-MB-231 breast
  TGI: 23.3 µM
CCRF-CEM leukemia
  TGI: 1.45 µM
SK-MEL-2 melanoma
  TGI: 22.6 µM
MDA-N
  TGI: 24.6 µM
COLO 205 colon
  TGI: 17.6 µM
KM20L2 colon
  TGI: 32.9 µM
DU-145 prostate
  TGI: 37.1 µM
TK-10 renal
  TGI: 20.7 µM
DLD-1 colon
  TGI: 22.8 µM
OVCAR-3 ovarian
  TGI: 4.22 µM
EKVX NSCLC
  TGI: 9.87 µM
NCI-H226 lung
  TGI: 37.3 µM

## CSC1(C)CC2C(CC1N1CCOCC1)C2(C)C (configuration not stated)
XF 498 CNS
  TGI: > 100 µM
DMS 273 small cell lung
  TGI: > 100 µM
UO-31 renal
  TGI: > 100 µM
A549 NSCLC
  TGI: > 100 µM
HCT-116 colon
  TGI: > 100 µM
HCC-2998 colon
  TGI: > 100 µM
OVCAR-8 ovarian
  TGI: > 100 µM
IGROV1 ovarian
  TGI: > 100 µM
OVCAR-4 ovarian
  TGI: > 100 µM
RPMI-8226 leukemia
  TGI: > 100 µM
NCI-H460 lung
  TGI: > 100 µM
ACHN renal
  TGI: > 100 µM
UACC-257 melanoma
  TGI: > 100 µM
HCT-15 colon
  TGI: > 100 µM
SN12C renal
  TGI: > 100 µM
SF-268 CNS
  TGI: > 100 µM
OVCAR-5 ovarian
  TGI: > 100 µM
NCI-H23 lung
  TGI: > 100 µM
HL-60(TB) leukemia
  TGI: > 100 µM
K-562 leukemia
  TGI: > 100 µM
SNB-75 CNS
  TGI: > 100 µM
SK-OV-3 ovarian
  TGI: > 100 µM
HOP-18 NSCLC
  TGI: > 100 µM
SF-539 CNS
  TGI: > 100 µM
SF-295 CNS
  TGI: > 100 µM
SK-MEL-5 melanoma
  TGI: > 100 µM
HOP-92 NSCLC
  TGI: > 100 µM
M19-MEL melanoma
  TGI: > 100 µM
KM12 colon
  TGI: > 100 µM
M14 melanoma
  TGI: > 100 µM
SNB-78 CNS
  TGI: > 100 µM
SK-MEL-28 melanoma
  TGI: > 100 µM
LXFL 529 NSCLC
  TGI: > 100 µM
U251 CNS
  TGI: > 100 µM
MOLT-4 leukemia
  TGI: > 100 µM
786-0 renal
  TGI: > 100 µM
MALME-3M melanoma
  TGI: > 100 µM
HT29 colon
  TGI: > 100 µM
CCRF-CEM leukemia
  TGI: > 100 µM
DMS 114 small cell lung
  TGI: > 100 µM
SK-MEL-2 melanoma
  TGI: > 100 µM
COLO 205 colon
  TGI: > 100 µM
TK-10 renal
  TGI: > 100 µM
DLD-1 colon
  TGI: > 100 µM
OVCAR-3 ovarian
  TGI: > 100 µM
NCI-H226 lung
  TGI: > 100 µM
